Experimental data: patent US9296741B2, “Bromodomain inhibitors” (priority 2012, dated 2016)

Experiments:
[1] = target: human BRD4 first bromodomain (BDI_K57-E168) (Homo sapiens (Human), UniProt O60885); experiment: TR-FRET bromodomain binding assay, BRD4 first bromodomain
[2] = target: human BRD4 second bromodomain (BDII_E352-M457) (Homo sapiens (Human), UniProt O60885); experiment: TR-FRET bromodomain binding assay, BRD4 second bromodomain
[3] = test system: breast cancer cell line MX-1; experiment: MX-1 cell line proliferation assay; assay type: cell-based, human; settings: Homo sapiens, MX1, 72 h; MX-1 cells, 3-day proliferation, Cell Titer Glo; read-out: Cellular proliferation: EC50
[4] = Human liver microsome stability assay; assay type: in vitro ADME; settings: both sexes, human, microsomes, pH 7.4
[5] = Rat liver microsome stability assay; assay type: in vitro ADME; settings: rat liver microsomes (male Sprague-Dawley), 0.5 μM test compound, 0.25 mg/mL microsomal protein, pH 7.4, 37° C.; read-out: Stability in rat liver microsomes (t1/2 in minutes)
[6] = Mouse liver microsome stability assay; assay type: in vitro ADME; settings: male, CD1, mouse, microsomes, pH 7.4

Compound | Ki [1] [nM] | Ki [2] [nM] | EC50 [3] [nM] | half-life at 0.5 μM [4] [min] | half-life at 0.5 μM [5] [min] | half-life at 0.5 μM [6] [min]
Cn1cc(-c2cc(S(C)(=O)=O)ccc2Nc2ccc(F)cc2)c2cc[nH]c2c1=O [Example 332, 4-{2-[(4-fluorophenyl)amino]-5-(methylsulfonyl)phenyl}-6-methyl-1,6-dihydro-7H-pyrrolo[2,3-c]pyridin-7-one] | 30.4 | 30.6 | 53.1 | 65 | 70 | > 120
Cn1cc(-c2cc(CC#N)ccc2OCC2CC2)c2cc[nH]c2c1=O [Example 336, [4-(cyclopropylmethoxy)-3-(6-methyl-7-oxo-6,7-dihydro-1H-pyrrolo[2,3-c]pyridin-4-yl)phenyl]acetonitrile] | 76.2 | 152 | 115 | 44 | 5 | 17
CCS(=O)(=O)Nc1ccc(Oc2ccc(F)cc2F)c(-c2cn(C)c(=O)c3[nH]c(CO)cc23)c1 [Example 337, N-{4-(2,4-difluorophenoxy)-3-[2-(hydroxymethyl)-6-methyl-7-oxo-6,7-dihydro-1H-pyrrolo[2,3-c]pyridin-4-yl]phenyl}ethanesulfonamide] | 4.3 | 4.2 | 15.8 | > 120 | > 120 | > 120
CCS(=O)(=O)Nc1ccc(Oc2ccc(F)cc2F)c(-c2cn(C)c(=O)c3[nH]c(C(=O)N4CCN(C)CC4)cc23)c1 [Example 338, N-[4-(2,4-difluorophenoxy)-3-{6-methyl-2-[(4-methylpiperazin-1-yl)carbonyl]-7-oxo-6,7-dihydro-1H-pyrrolo[2,3-c]pyridin-4-yl}phenyl]ethanesulfonamide] | 0.86 | 12.7 | 77.9 | 39 | 29 | 20
CCS(=O)(=O)Nc1ccc(Oc2ccc(F)cc2F)c(-c2cn(C)c(=O)c3[nH]c(CN4CCN(C)CC4)cc23)c1 [Example 339, N-[4-(2,4-difluorophenoxy)-3-{6-methyl-2-[(4-methylpiperazin-1-yl)methyl]-7-oxo-6,7-dihydro-1H-pyrrolo[2,3-c]pyridin-4-yl}phenyl]ethanesulfonamide] | 0.8 | 31.6 | 77.4 | 100 | 76 | 67
CCS(=O)(=O)N(CC1CCCO1)c1ccc(Oc2ccc(F)cc2F)c(-c2cn(C)c(=O)c3[nH]ccc23)c1 (stereo not drawn) [Example 345, N-[4-(2,4-difluorophenoxy)-3-(6-methyl-7-oxo-6,7-dihydro-1H-pyrrolo[2,3-c]pyridin-4-yl)phenyl]-N-(tetrahydrofuran-2-ylmethyl)ethanesulfonamide] | 129 | 32.6 | 479 | 2 | 4 | 2

Results, then the molecule that gave them:

Ki [1] [nM] | Ki [2] [nM] | EC50 [3] [nM] | half-life at 0.5 μM [4] [min] | half-life at 0.5 μM [5] [min] | half-life at 0.5 μM [6] [min] | Compound
8.5 | 4.2 | 35.4 | > 120 | > 120 | > 120 | CCS(=O)(=O)c1ccc(OCC2CC2(F)F)c(-c2cn(C)c(=O)c3[nH]c(C(=O)NCC(F)(F)F)cc23)c1 (stereo not drawn) [Example 327, 4-{2-[(2,2-difluorocyclopropyl)methoxy]-5-(ethylsulfonyl)phenyl}-6-methyl-7-oxo-N-(2,2,2-trifluoroethyl)-6,7-dihydro-1H-pyrrolo[2,3-c]pyridine-2-carboxamide]
96.2 | 16 | 213 | 4 | 5 | 2 | CCS(=O)(=O)N(CCC(F)(F)F)c1ccc(Oc2ccc(F)cc2F)c(-c2cn(C)c(=O)c3[nH]ccc23)c1 [Example 346, N-[4-(2,4-difluorophenoxy)-3-(6-methyl-7-oxo-6,7-dihydro-1H-pyrrolo[2,3-c]pyridin-4-yl)phenyl]-N-(3,3,3-trifluoropropyl)ethanesulfonamide]
